From patent US9340580B2, “Peptide with multiple epitopes” (priority 2007, dated 2016)
Where a SMILES comes first, the peptide text is derived from it.

Assay: solubility pre-screen in an aqueous, acidic milieu; also: test concentration or dose not given here
Format: physicochemical

Q: With `CC(C)C[C@H](NC(=O)[C@H](CC(=O)O)NC(=O)[C@H](CC(C)C)NC(=O)[C@H](CCC(=O)O)NC(=O)[C@H](CO)NC(=O)[C@@H]1CCCN1C(=O)[C@@H](NC(=O)[C@H](CC(N)=O)NC(=O)[C@@H](NC(=O)[C@H](CO)NC(=O)[C@@H](N)CC(N)=O)C(C)C)C(C)C)C(=O)N[C@@H](CCCNC(=N)N)C(=O)N[C@@H](CO)C(=O)N[C@@H](CC(C)C)C(=O)N[C@@H](CCCNC(=N)N)C(=O)N[C@H](C(=O)O)[C@@H](C)O` [HDM17] (H-NSVNVPSELDLRSLRT-OH) as the compound, how does the Solubility test read?
A: The Solubility test was “YES”.

Q: With `CSCC[C@H](NC(=O)[C@H](CO)NC(=O)[C@@H](NC(=O)[C@@H](NC(=O)[C@H](CC(=O)O)NC(=O)[C@@H](N)CC(=O)O)C(C)C)C(C)C)C(=O)N[C@@H](CCC(=O)O)C(=O)N[C@@H](Cc1ccc(O)cc1)C(=O)N[C@@H](CC(=O)O)C(=O)N[C@@H](CC(C)C)C(=O)N[C@@H](C)C(=O)N[C@@H](Cc1ccc(O)cc1)C(=O)N[C@@H](CCCCN)C(=O)O` [HDM39] (H-DDVVSMEYDLAYK-OH; N-terminus and C-terminus assumed) as the compound, how does the Solubility test read?
A: The Solubility test was “NO*”.

Q: With `CSCC[C@H](NC(=O)[C@@H]1CCCN1C(=O)[C@H](CC(=O)O)NC(=O)[C@H](Cc1ccccc1)NC(=O)[C@@H](NC(=O)[C@@H](N)CCC(=O)O)[C@@H](C)O)C(=O)N[C@@H](CCCCN)C(=O)N[C@H](C(=O)N1CCC[C@H]1C(=O)N[C@@H](CC(=O)O)C(=O)N[C@@H](Cc1c[nH]cn1)C(=O)N[C@@H](CO)C(=O)N[C@@H](CC(=O)O)C(=O)N[C@@H](CCCCN)C(=O)O)C(C)C` [HDM29A] (H-ETFDPMKVPDHSDK-OH) as the compound, how does the Solubility test read?
A: The Solubility test was “YES”.

Q: Which Solubility test does the source give for `CC[C@H](C)[C@H](NC(=O)[C@@H](NC(=O)[C@@H](N)CS)[C@@H](C)CC)C(=O)N[C@@H](Cc1c[nH]cn1)C(=O)N[C@@H](CCCNC(=N)N)C(=O)NCC(=O)N[C@@H](CCCCN)C(=O)N1CCC[C@H]1C(=O)N[C@@H](Cc1ccccc1)C(=O)N[C@@H](CCC(N)=O)C(=O)N[C@@H](CC(C)C)C(=O)N[C@@H](CCC(=O)O)C(=O)N[C@@H](C)C(=O)O` [HDM20] (H-CIIHRGKPFQLEA-OH; N-terminus and C-terminus assumed) here?
A: The Solubility test was “YES”.

Q: With `CSCC[C@H](NC(=O)[C@@H]1CCCN1C(=O)[C@H](CC(=O)O)NC(=O)[C@H](Cc1ccccc1)NC(=O)[C@@H](NC(=O)[C@@H](N)CCC(=O)O)[C@@H](C)O)C(=O)N[C@@H](CCCCN)C(=O)N[C@H](C(=O)N1CCC[C@H]1C(=O)N[C@@H](CC(=O)O)C(=O)N[C@@H](Cc1c[nH]cn1)C(=O)N[C@@H](CO)C(=O)N[C@@H](CC(=O)O)C(=O)O)C(C)C` [HDM29] (H-ETFDPMKVPDHSD-OH) as the compound, how does the Solubility test read?
A: Its Solubility test is “YES”.

Q: With `CC[C@H](C)[C@H](NC(=O)[C@H](CCC(=O)O)NC(=O)[C@H](Cc1c[nH]cn1)NC(=O)[C@H](CC(N)=O)NC(=O)[C@H](C)NC(=O)[C@H](CS)NC(=O)[C@H](CC(=O)O)NC(=O)[C@H](CCCCN)NC(=O)[C@@H](NC(=O)[C@H](CC(=O)O)NC(=O)[C@@H](NC(=O)[C@H](CCC(N)=O)NC(=O)[C@@H](N)CC(=O)O)C(C)C)C(C)C)C(=O)N[C@@H](CCCCN)C(=O)N[C@@H](CCCCN)C(=O)O` [HDM19] (H-DQVDVKDCANHEIKK-OH) as the compound, how does the Solubility test read?
A: The Solubility test was “YES”.

Q: Which Solubility test does the source give for `CC[C@H](C)[C@H](NC(=O)[C@H](Cc1ccc(O)cc1)NC(=O)[C@@H](N)CCC(=O)O)C(=O)N[C@@H](CCC(N)=O)C(=O)N[C@@H](Cc1c[nH]cn1)C(=O)N[C@@H](CC(N)=O)C(=O)NCC(=O)N[C@H](C(=O)N[C@H](C(=O)N[C@@H](CCC(N)=O)C(=O)N[C@@H](CCC(=O)O)C(=O)N[C@@H](CO)C(=O)N[C@@H](Cc1ccc(O)cc1)C(=O)O)C(C)C)C(C)C` [HDM05] (H-EYIQHNGVVQESY-OH) here?
A: Its Solubility test is “YES”.

Q: Which Solubility test does the source give for `CC(C)[C@H](NC(=O)[C@H](CCCNC(=N)N)NC(=O)[C@@H](N)CCCCN)C(=O)NCC(=O)N[C@@H](CC(=O)O)C(=O)N[C@@H](C)C(=O)N[C@@H](CC(N)=O)C(=O)N[C@H](C(=O)N[C@@H](CCCCN)C(=O)N[C@@H](CO)C(=O)N[C@@H](CCC(=O)O)C(=O)N[C@@H](CC(=O)O)C(=O)NCC(=O)O)C(C)C` [HDM36] (H-KRVGDANVKSEDG-OH) here?
A: The Solubility test was “YES”.

Q: Which Solubility test does the source give for `CSCC[C@H](NC(=O)[C@H](CCC(N)=O)NC(=O)[C@H](CCCCN)NC(=O)[C@H](CC(C)C)NC(=O)CNC(=O)[C@@H](N)CCCNC(=N)N)C(=O)N[C@@H](CCCCN)C(=O)N[C@@H](CCCNC(=N)N)C(=O)N[C@H](C(=O)NCC(=O)N[C@@H](CC(=O)O)C(=O)N[C@@H](C)C(=O)N[C@@H](CC(N)=O)C(=O)O)C(C)C` [HDM35] (H-RGLKQMKRVGDAN-OH; N-terminus and C-terminus assumed) here?
A: Its Solubility test is “YES”.

Q: For `CC(C)[C@H](NC(=O)[C@H](Cc1ccc(O)cc1)NC(=O)[C@@H](N)CCCNC(=N)N)C(=O)N[C@@H](C)C(=O)N[C@@H](CCCNC(=N)N)C(=O)N[C@@H](CCC(=O)O)C(=O)N[C@@H](CCC(N)=O)C(=O)N[C@@H](CO)C(=O)N[C@@H](CS)C(=O)N[C@@H](CCCNC(=N)N)C(=O)N[C@@H](CCCNC(=N)N)C(=O)N1CCC[C@H]1C(=O)N[C@@H](CC(N)=O)C(=O)O` [HDM06] (H-RYVAREQSCRRPN-OH; N-terminus and C-terminus assumed), which Solubility test is on record?
A: The Solubility test was “YES”.

Q: Which Solubility test does the source give for `CC[C@H](C)[C@H](NC(=O)[C@H](CC(N)=O)NC(=O)[C@@H](N)CCCNC(=N)N)C(=O)N[C@@H](CCC(N)=O)C(=O)N[C@H](C(=O)N[C@@H](CCCNC(=N)N)C(=O)NCC(=O)N[C@@H](CC(C)C)C(=O)N[C@@H](CCCCN)C(=O)N[C@@H](CCC(N)=O)C(=O)N[C@@H](CCSC)C(=O)N[C@@H](CCCCN)C(=O)N[C@@H](CCCNC(=N)N)C(=O)N[C@H](C(=O)NCC(=O)O)C(C)C)C(C)C` [HDM34] (H-RNIQVRGLKQMKRVG-OH; N-terminus and C-terminus assumed) here?
A: Its Solubility test is “YES”.

Q: For `C[C@@H](O)[C@H](NC(=O)[C@H](CC(=O)O)NC(=O)[C@H](Cc1c[nH]c2ccccc12)NC(=O)[C@H](CO)NC(=O)[C@H](CC(N)=O)NC(=O)[C@@H](N)CCCNC(=N)N)C(=O)N[C@@H](CC(N)=O)C(=O)N[C@@H](Cc1c[nH]c2ccccc12)C(=O)NCC(=O)N[C@@H](CC(=O)O)C(=O)N[C@@H](CC(N)=O)C(=O)NCC(=O)N[C@@H](Cc1ccc(O)cc1)C(=O)NCC(=O)O` [HDM16A] (H-RNSWDTNWGDNGYG-OH), which Solubility test is on record?
A: Its Solubility test is “YES”.

Q: For `CC[C@H](C)[C@H](NC(=O)[C@H](CC(N)=O)NC(=O)[C@H](CCCNC(=N)N)NC(=O)[C@H](CCSC)NC(=O)[C@H](CC(=O)O)NC(=O)[C@@H](N)CC(C)C)C(=O)N[C@@H](CCC(N)=O)C(=O)N[C@H](C(=O)N[C@@H](CCCNC(=N)N)C(=O)NCC(=O)N[C@@H](CC(C)C)C(=O)N[C@@H](CCCCN)C(=O)N[C@@H](CCC(N)=O)C(=O)O)C(C)C` [HDM33] (H-LDMRNIQVRGLKQ-OH; N-terminus and C-terminus assumed), which Solubility test is on record?
A: The Solubility test was “YES”.

Q: Which Solubility test does the source give for `CC[C@H](C)[C@H](N)C(=O)N[C@@H](CC(=O)O)C(=O)N[C@@H](CC(C)C)C(=O)N[C@@H](CCCNC(=N)N)C(=O)N[C@@H](CCC(N)=O)C(=O)N[C@@H](CCSC)C(=O)N[C@@H](CCCNC(=N)N)C(=O)N[C@H](C(=O)N[C@H](C(=O)N[C@H](C(=O)N1CCC[C@H]1C(=O)N[C@H](C(=O)N[C@@H](CCCNC(=N)N)C(=O)O)[C@@H](C)CC)[C@@H](C)O)C(C)C)[C@@H](C)O` [HDM01] (H-IDLRQMRTVTPIR-OH; N-terminus and C-terminus assumed) here?
A: The Solubility test was “YES”.

Q: For `CC[C@H](C)[C@H](NC(=O)[C@H](CCCCN)NC(=O)[C@H](CC(N)=O)NC(=O)[C@@H](NC(=O)[C@H](CC(N)=O)NC(=O)[C@@H]1CCCN1)C(C)C)C(=O)N[C@@H](CCCNC(=N)N)C(=O)N[C@@H](CCC(=O)O)C(=O)N[C@@H](C)C(=O)N[C@@H](CC(C)C)C(=O)N[C@@H](C)C(=O)N[C@@H](CCC(N)=O)C(=O)N[C@H](C(=O)O)[C@@H](C)O` [HDM07] (H-PNVNKIREALAQT-OH), which Solubility test is on record?
A: Its Solubility test is “YES”.

Q: For `CC(C)[C@H](NC(=O)[C@H](C)NC(=O)[C@@H](N)CCC(=O)O)C(=O)N[C@@H](Cc1ccccc1)C(=O)N[C@@H](CCC(=O)O)C(=O)N[C@@H](C)C(=O)N[C@@H](CC(N)=O)C(=O)N[C@@H](CCC(N)=O)C(=O)N[C@@H](CC(N)=O)C(=O)N[C@H](C(=O)N[C@@H](CCCCN)C(=O)N[C@H](C(=O)N[C@@H](C)C(=O)N[C@@H](CCCCN)C(=O)O)[C@@H](C)O)[C@@H](C)O` [HDM22A] (H-EAVFEANQNTKTAK-OH; N-terminus and C-terminus assumed), which Solubility test is on record?
A: Its Solubility test is “YES”.

Q: Which Solubility test does the source give for `CC(C)C[C@H](NC(=O)[C@H](CC(=O)O)NC(=O)[C@H](CC(C)C)NC(=O)[C@H](CO)NC(=O)[C@H](CCC(N)=O)NC(=O)[C@H](CC(N)=O)NC(=O)[C@@H](N)CCCNC(=N)N)C(=O)N[C@@H](C)C(=O)N[C@@H](CCC(=O)O)C(=O)N[C@@H](CCC(N)=O)C(=O)N[C@@H](CCC(=O)O)C(=O)N[C@@H](CC(C)C)C(=O)N[C@H](C(=O)N[C@@H](CC(=O)O)C(=O)N[C@@H](CS)C(=O)N[C@@H](C)C(=O)N[C@@H](CO)C(=O)N[C@@H](CCC(N)=O)C(=O)N[C@@H](Cc1c[nH]cn1)C(=O)O)C(C)C` [HDM03C] (H-RNQSLDLAEQELVDCASQH-OH; N-terminus and C-terminus assumed) here?
A: The Solubility test was “YES”.

Q: For `CC(C)[C@H](NC(=O)CNC(=O)[C@H](CC(=O)O)NC(=O)[C@H](CCC(=O)O)NC(=O)[C@H](CO)NC(=O)[C@H](CCCCN)NC(=O)[C@@H](NC(=O)[C@H](CC(N)=O)NC(=O)[C@H](C)N)C(C)C)C(=O)N[C@H](C(=O)N[C@@H](CCCCN)C(=O)N[C@@H](C)C(=O)N[C@@H](Cc1c[nH]cn1)C(=O)O)C(C)C` [HDM37] (H-ANVKSEDGVVKAH-OH), which Solubility test is on record?
A: Its Solubility test is “YES”.

Q: Which Solubility test does the source give for `CC[C@H](C)[C@H](NC(=O)[C@H](CCCCN)NC(=O)[C@@H](N)CC(N)=O)C(=O)N[C@@H](CCCNC(=N)N)C(=O)N[C@@H](CCC(=O)O)C(=O)N[C@@H](C)C(=O)N[C@@H](CC(C)C)C(=O)N[C@@H](C)C(=O)N[C@@H](CCC(N)=O)C(=O)N[C@H](C(=O)N[C@@H](Cc1c[nH]cn1)C(=O)N[C@@H](CO)C(=O)N[C@@H](C)C(=O)O)[C@@H](C)O` [HDM08] (H-NKIREALAQTHSA-OH) here?
A: The Solubility test was “YES”.

Q: Which Solubility test does the source give for `CC[C@H](C)[C@H](NC(=O)[C@@H]1CCCN1C(=O)[C@@H](NC(=O)[C@@H](NC(=O)[C@@H](NC(=O)[C@@H](N)CCCNC(=N)N)[C@@H](C)O)C(C)C)[C@@H](C)O)C(=O)N[C@@H](CCCNC(=N)N)C(=O)N[C@@H](CCSC)C(=O)N[C@@H](CCC(N)=O)C(=O)NCC(=O)NCC(=O)N[C@@H](CS)C(=O)NCC(=O)O` [HDM02] (H-RTVTPIRMQGGCG-OH; N-terminus and C-terminus assumed) here?
A: The Solubility test was “YES”.
